Legend:
HIV = conditions: HEK293T cells; ref previous study (Pribut et al. 2021); read-out: IC50 (antiviral activity, previous study); cited from earlier work
Caco-2 cells = assay: Control: release of membrane-associated prodrug into media after wash; assay type: in vitro ADME, human; conditions: 10 μM, 15 min at 37 °C, media at 0, 5 and 15 min postwash
Description: After characterizing the impact of membrane dynamics on the packaging of ω-unfunctionalized prodrugs into CMs, we proceeded to screen the ω-CF3-functionalized BOG lipid prodrugs in our CM assay. All collections were done at the 20 h time point to allow full diffusion of prodrug out of the membrane. […] However, CM concentration strongly correlated with c Log D values (R ^2 = 0.89, Figure c), consistent with trends observed for ω-unfunctionalized prodrugs and highlighting the role of lipophilicity on CM incorporation. […] This is further supported by the 2.4-fold increase in CM concentration observed for 15a compared to TXL, where the only difference is the inclusion of the terminal CF3 group. […] Therefore, as an important control experiment, Caco-2 cells were incubated with 10 μM of TXL or compound 21a (n = 6 per group) in the presence of the lipid mixture for 15 min at 37 °C. After incubation, the cells were washed three times with PBS, and fresh drug-free growth media was added. Aliquots of the media were collected at 0, 5, and 15 min postwash. Samples were analyzed by LC-MS/MS for the presence of TXL and 21a.

[1] = Release of parent TFV in mouse tissues after oral prodrug (fed state); conditions: 10 mg/kg oral prodrug
Description: To further evaluate the in vivo performance of 21a, we measured the release of the parent drug, TFV, in plasma (Figure a), liver (Figure b), and lung tissues collected from our PK study (fed state), and compared these levels (Figure c) with TXL.
Concentration–time profiles of parent TFV in (a) plasma and (b) liver of mice treated with either TXL or 21a (n = 3 biological replicates). (c) Summary of key TFV plasma and liver PK parameters following oral dose of TXL or 21a. Data represent the mean ± SEM.

Compound	IC50 (HIV) [nM]	prodrug concentration in media postwash (Caco-2 cells)	TFV levels (Cmax and AUC) in plasma and liver relative to 21a-treated mice [1]
C[C@H](Cn1cnc2c(N)ncnc21)OCP(=O)(O)OCCCOCCCCCCCCCCCCCCCC(F)(F)F [15a, Ammonium[(1R)-2-(6-aminopurin-9-yl)-1-methyl-ethoxy]methyl-[3-(16,16,16-trifluorohexadecoxy)propoxy]phosphinate]	50	–	–
C[C@H](Cn1cnc2c(N)ncnc21)OCP(=O)(O)OC[C@H](COCCCCCCCCCCCCCCCC(F)(F)F)OCc1ccccc1 [21a, Ammonium[(1R)-2-(6-Aminopurin-9-yl)-1-methyl-ethoxy]methyl-[(2S)-2-benzyloxy-3-(16,16,16-trifluorohexadecoxy)propoxy]phosphinate]	–	below the limit of detection	–
CCCCCCCCCCCCCCCCOCCCOP(=O)(O)CO[C@H](C)Cn1cnc2c(N)ncnc21 [TXL, hexadecyloxypropyl (HDP)-TFV, reference compound]	–	below the limit of detection	higher levels of TFV
